Consider four compounds from patent publication US4308256A, “Method of inducing analgesia” (American Home Products Corporation, priority 1980, dated 1981).

Experiment [1] relates to rats. As to conditions: fully reversible by naloxone; cited from earlier work.
Experiment [2] relates to male Charles River rats. As to the kind of experiment: D'Amour-Smith rat tail-flick procedure (radiant heat, 8 second cut-off), intraventricular injection. In kind it is in vivo. Particulars: for Tail-flick latency: leucine-enkephalin intraventricular. Here is the method: Intraventricular cannulae, made of 27-gauge stainless steel tubing, are implanted in 300-400 g. male Charles River rats under pentobarbital anesthesia. After a recovery period of at least one week, the rats are restrained in a wire-mesh cylindrical chamber so that the tip of the tail can be positioned at the focal point of a radiant heat source. After an acclimatistation period of 5 minutes, the lamp is turned on and an electric clock activated. Movement of the tip of the tail exposes a photocell to the lamp, which turns off the thermal stimulus and stops the clock. If a rat fails to move its tail within 8 seconds, the heat is automatically turned off to prevent blistering. The intensity of the lamp is adjusted in each case to produce at least three baseline tail-flick latencies of 2.5-4.5 seconds. Tests are initially made every 2 minutes, then every 5 minutes and finally every 15 minutes.
Initially, using the above outlined procedure, the effects of intraventricularly administered leucine-enkephalin are tested in rats according to the above procedure.
The rat tail flick procedure is repeated, first by the simultaneous intraventricular injection of both leucine-enkephalin and bestatin and then by the initial injection of bestatin followed one hour later by the injection of leucine-enkephalin.
The above procedure is repeated again, however, the bestatin is administered first and then one hour later the leucine-enkephalin is administered.
The effects of bestatin alone are tested in rats according to the rat tail flick procedure.
On the technique in general: Hot-plate and tail-flick tests time the reaction to a heat stimulus.

Experiment [3] has as its system aminopeptidase. As to conditions: cited from earlier work.
Setting [4] is: exogenously (intraventricularly) administered leucine-enkephalin alone, rats.

Bridge positions count the residues as written; N and C are the ends. Square brackets hold non-standard residues; d marks the D form. Peptide text beside a SMILES is read from it. * marks the point of attachment. Ileψ(thiazoline)Cys = CC[C@H](C)[C@H](N)C1=N[C@H](C(=O)*)CS1; dOrn = NCCC[C@@H](N)C(=O)O

On to `CC(C)C[C@H](NC(=O)[C@H](Cc1ccccc1)NC(=O)CNC(=O)CNC(=O)[C@@H](N)Cc1ccc(O)cc1)C(=O)O` [leucine-enkephalin, H-Tyr-Gly-Gly-Phe-Leu-OH, reference compound], for which, in experiment [1], the “Analgesia after injection into the brain ventricle” value is “profound analgesia”. The “Time after which the effect dissipates rapidly” value in experiment [2] (setting [4]) was 10 to 12 min. Moreover, the “Time to peak analgesic effect” value in experiment [2] (setting [4]) lay within 6 to 8 min. In addition, the Tail-flick latency came out at 8.00 s in experiment [2] (Rat 1, 2 min); 8.00 s in experiment [2] (Rat 1, 4 min); 8.00 s in experiment [2] (Rat 1, 6 min); 8.00 s in experiment [2] (Rat 1, 8 min); 6.15 s in experiment [2] (Rat 1, 10 min); 5.76 s in experiment [2] (Rat 1, 12 min). Besides, the Tail-flick latency in experiment [2] (Rat 1, 14 min) turned out to be 2.69 s; in experiment [2] (Rat 2, 2 min), 8.00 s; in experiment [2] (Rat 2, 4 min), 8.00 s; in experiment [2] (Rat 2, 6 min), 5.11 s; in experiment [2] (Rat 2, 8 min), 4.24 s; in experiment [2] (Rat 2, 10 min), 3.48 s. In addition, the Tail-flick latency in experiment [2] (Rat 2, 12 min) is 4.15 s; in experiment [2] (Rat 3, 2 min), 4.88 s; in experiment [2] (Rat 3, 4 min) it was 8.00 s; in experiment [2] (Rat 3, 6 min), 7.50 s; in experiment [2] (Rat 3, 8 min) it was 8.00 s; in experiment [2] (Rat 3, 10 min), 4.50 s. The Tail-flick latency amounted to 3.49 s in experiment [2] (Rat 3, 12 min); 3.04 s in experiment [2] (Rat 3, 14 min); 6.47 s in experiment [2] (Rat 4, 2 min); 6.97 s in experiment [2] (Rat 4, 4 min); 6.62 s in experiment [2] (Rat 4, 6 min); 7.17 s in experiment [2] (Rat 4, 8 min). Moreover, the Tail-flick latency in experiment [2] (Rat 4, 10 min) came to 6.81 s; in experiment [2] (Rat 4, 12 min), 7.52 s; in experiment [2] (Rat 4, 14 min) it was 3.06 s.
`CC[C@H](C)[C@H](N)C1=N[C@H](C(=O)N[C@@H](CC(C)C)C(=O)N[C@H](CCC(=O)O)C(=O)N[C@H](C(=O)N[C@H]2CCCCNC(=O)[C@H](CC(N)=O)NC(=O)[C@@H](CC(=O)O)NC(=O)[C@H](Cc3cnc[nH]3)NC(=O)[C@@H](Cc3ccccc3)NC(=O)[C@H]([C@@H](C)CC)NC(=O)[C@@H](CCCN)NC2=O)[C@@H](C)CC)CS1` [bacitracin] ({Ileψ(thiazoline)Cys}-L[dE]IK[dOrn]I[dF]H[dD]N; lactam 4-C): the “Inhibition of "aminopeptidase"-catalyzed breakdown of enkephalins” value in experiment [3] is “effective inhibitors”.
On to `COc1ccc(C[C@H](N)C(=O)N[C@H]2[C@@H](O)[C@H](n3cnc4c(N(C)C)ncnc43)O[C@@H]2CO)cc1` [puromycin], for which the “Inhibition of "aminopeptidase"-catalyzed breakdown of enkephalins” value in experiment [3] is “effective inhibitors”.
For “H-Tyr-Gly-Gly-Phe-Met-OH [methionine-enkephalin]”, the “Analgesia after injection into the brain ventricle” value in experiment [1] was “profound analgesia”.
